Here are results for three compounds from patent publication US7998474B2, “Methods for treating an inflammatory disease of the bowel” (Rowett Research Institute, priority 2001, dated 2011).

Data set [1] deals with Caco-2 cells. Put plainly: Inflammatory cytokine gene expression in Caco-2 cells exposed to S. enteritidis (macroarray, Northern, real-time PCR). The format is cell-based. The note with it: 10^8 S. enteritidis plus drug 10-30 μM, 2 hours, Northern. On the technique in general: Real-time PCR tracks product formation cycle by cycle.
In data set [2] the test system is PPARγ. The data set is described as follows: Northern hybridisation of PPAR mRNA in Caco-2 cells. It counts as cell-based. The settings on record: Caco-2 cells, 10^8 S. enteritidis plus 30 μM ligand, 2 hours.
Data set [3] has as its system RelA [NF-κB p65]. Put plainly: Immunofluorescence localisation of RelA in Caco-2 cells. The format is cell-based.
Data set [4] relates to PPARγ. The data set is described as follows: Cellular distribution of PPARγ in Caco-2 cells (immunocytochemistry, western blot). (In general: A western blot detects proteins with antibodies after separation by electrophoresis.)
Where [5] appears, read: 800 nM for 4 hours, cells treated with S. enteritidis alone.

For `CCCCC/C=C/C=C1/C(=O)C=C[C@@H]1C/C=C\CCCC(=O)O` [15d-PGJ2, 15-deoxy-Δ^12,14-prostaglandin J2, reference compound], the “Activation of inflammatory cytokine expression (TNF-α, IL-8, COX-2) by S. enteritidis” value in data set [1] was “attenuated”. Besides, the “PPARγ mRNA after PPAR ligand” value in data set [2] is listed as “decreased”.
Consider `CCC(=C/[C@H](C)C/C=C/C(C)=C/[C@@H](C)C(=O)[C@@H](C)[C@H](O)[C@@H](C)C/C(C)=C/C(=O)O)/C=C/[C@@H]1OC(=O)C=C[C@@H]1C` [LMB, leptomycin B], for which the “RelA in nuclei after inhibition of CRM-1-dependent nuclear export” value in data set [3] (cells co-cultured with S. enteritidis and B. thetaiotaomicron) is “caused an accumulation of RelA in nuclei”. Also, the “Nucleocytoplasmic shuttling of PPARγ induced by co-culture of S. enteritidis and B. thetaiotaomicron” value in data set [4] (Caco-2 cells, inhibitor treatment) is on record as “not blocked”.
In the case of `CC(/C=C/C(=O)NO)=C\[C@@H](C)C(=O)c1ccc(N(C)C)cc1` [TSA, trichostatin A], the “p65 nuclear accumulation after HDAC inhibition” value in data set [3] (setting [5]) is reported as “partial p65 accumulation”. Also, the “Exit of PPARγ to cytosol after HDAC inhibition” value in data set [4] (setting [5]) is listed as “accelerated exit of PPARγ to cytosol”. The “PPARγ localisation in S. enteritidis-treated Caco-2 cells with inhibitor” value in data set [4] (S. enteritidis-treated Caco-2 cells) was “induce punctate cytosolic labeling and export of PPARγ from the nucleus”.
